Columns and labels:
human EAAT3 = target: T1, human EAAT3 (Homo sapiens, UniProt P43005); experiment: FLIPR Membrane Potential (FMP) assay; format: cell-based; conditions: HEK-293 cells stably expressing human EAAT3; antagonist applied 15 min before L-glutamate at EC80; Kb by Cheng-Prusoff from IC50
T1 construct: expressed in transfected cells
T1 sequence (P43005 1-524): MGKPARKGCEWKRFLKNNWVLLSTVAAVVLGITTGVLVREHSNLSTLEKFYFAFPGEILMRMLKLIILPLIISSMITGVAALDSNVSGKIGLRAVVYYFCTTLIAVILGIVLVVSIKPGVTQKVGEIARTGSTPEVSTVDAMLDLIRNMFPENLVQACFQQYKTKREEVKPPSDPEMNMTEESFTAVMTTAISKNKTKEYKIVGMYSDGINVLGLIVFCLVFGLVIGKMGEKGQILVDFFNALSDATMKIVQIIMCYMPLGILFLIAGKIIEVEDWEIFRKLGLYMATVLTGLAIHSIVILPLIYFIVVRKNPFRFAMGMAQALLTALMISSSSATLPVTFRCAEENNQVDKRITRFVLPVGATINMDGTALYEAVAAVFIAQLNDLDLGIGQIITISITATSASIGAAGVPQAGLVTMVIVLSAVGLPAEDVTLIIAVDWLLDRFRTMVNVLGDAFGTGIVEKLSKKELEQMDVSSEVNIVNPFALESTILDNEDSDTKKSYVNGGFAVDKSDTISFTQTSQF
Protocol: The FLIPR Membrane Potential (FMP) Assay
HEK-293 cells stably expressing human EAAT3 were seeded at 55 000 cells/well in growth medium (DMEM glutamate free (Invitrogen 11960-044), 1% Pen Strep (10 ml/l GIBCO BRL No 15140-023), 10% FCS non dialysed heat inactivated, 5 mg/l puromycin) in poly-D-lysine treated 96-well black microtiter plates with clear-bottom. After 24 h, the growth medium was removed and 100 μl/well of Krebs buffer (140 mM NaCl, 4.7 mM KCl, 2.5 mM CaCl2, 1.2 mM MgCl2, 11 mM HEPES, 10 mM D-glucose, pH=7.4) added. The cells were then loaded by adding 100 μl/well FMP assay dye (FLIPR Membrane Potential assay reagent, Molecular Devices). The 96-well plates were then incubated at 37° C. for 1 h. The depolarization of the cells will cause more dye to enter in the cells, where it will bind to intracellular proteins and lipids and cause an increase in the fluorescence signal. Antagonist potency at human EAAT3 was determined by using L-glutamate as agonist at a concentration which gives 80% of the maximum response. The antagonists were applied 15 min before the application of the agonist L-glutamate. The assays were performed at room temperature and measurements done by using a Fluorometric Imaging Plate Reader (FLIPR, Molecular Devices) and filter #2. Responses were measured as peak increase in fluorescence minus basal (i.e. fluorescence without addition of L-glutamate). Kb was determined using the Cheng-Prusoff equation Kb=IC50/[1+(A/EC50)], where IC50 is the concentration of the antagonist producing 50% inhibition, A is the concentration of the agonist against which the IC50 is being determined (at EC80) and EC50 is the concentration of the agonist producing 50% […].

melting point | Kb (human EAAT3) | SMILES
199 °C | 350 nM | CC(C)(C)NC(=O)c1cc(-c2ccc(Cl)cc2)cc(-n2cnnn2)c1 [Example 12, N-tert-Butyl-3-(4-chlorophenyl)-5-(tetrazol-1-yl)-benzamide]
78 °C | 290 nM | Cc1nnnn1-c1cc(C(=O)NC(C)(C)C2CC2)cc(-c2ccc(F)cc2)c1 [Example 85, N-(2-Cyclopropylpropan-2-yl)-3-(4-fluorophenyl)-5-(5-methyltetrazol-1-yl)-benzamide]
90 °C | 180 nM | CC(C)(C)NC(=O)c1cc(-c2ccc(Cl)cc2)cc(-n2nnnc2C2CC2)c1 [Example 56, N-tert-Butyl-3-(4-chlorophenyl)-5-(5-cyclopropyltetrazol-1-yl)-benzamide]
86 °C | 200 nM | Cc1nnnn1-c1cc(C(=O)NC(C)(C)C(F)(F)F)cc(-c2ccc(F)cc2)c1 [Example 86, 3-(4-Fluorophenyl)-5-(5-methyltetrazol-1-yl)-N-(1,1,1-trifluoro-2-methylpropan-2-yl)-benzamide]
85 °C | 290 nM | Cc1ccc(-c2cc(C(=O)NC(C)(C)C)cc(-n3nnnc3C)c2)cc1 [Example 23, N-tert-Butyl-3-(4-methylphenyl)-5-(5-methyltetrazol-1-yl)-benzamide]
78 °C | 480 nM | CCC(C)(C)NC(=O)c1cc(-c2ccc(Cl)cc2)cc(-n2nnnc2C2CC2)c1 [Example 55, 3-(4-Chlorophenyl)-5-(5-cyclopropyltetrazol-1-yl)-N-(2-methylbutan-2-yl)-benzamide]
85 °C | 160 nM | CCC(C)(C)NC(=O)c1cc(-c2ccc(Cl)cc2)cc(-n2nnnc2C(C)C)c1 [Example 42, 3-(4-Chlorophenyl)-N-(2-methylbutan-2-yl)-5-(5-propan-2-yltetrazol-1-yl)-benzamide]
193 °C | 420 nM | Cc1nnnn1-c1cc(C(=O)NC(C)(C)CO)cc(-c2ccc(Cl)cc2)c1 [Example 64, 3-(4-Chlorophenyl)-N-(1-hydroxy-2-methylpropan-2-yl)-5-(5-methyl-tetrazol-1-yl)-benzamide]
185 °C | 180 nM | CCC(C)(C)NC(=O)c1cc(-c2ccc(Cl)cc2)cc(-n2nnnc2C(F)(F)F)c1 [Example 74, 3-(4-Chlorophenyl)-N-(2-methylbutan-2-yl)-5-[5-(trifluoromethyl)-tetrazol-1-yl]-benzamide]

Second part, the compound before the results:

SMILES | melting point | Kb (human EAAT3)
Cc1cc(-c2cc(C(=O)NC(C)(C)C3CC3)cc(-n3nnnc3C(C)(C)C)c2)ccc1F [Example 110, 3-(5-tert-Butyltetrazol-1-yl)-N-(2-cyclopropylpropan-2-yl)-5-(4-fluoro-3-methylphenyl)-benzamide] | 88 °C | 490 nM
CC(C)(C#N)NC(=O)c1cc(-c2ccc(F)c(F)c2)cc(-n2nnnc2C(C)(C)C)c1 [Example 123, 3-(5-tert-Butyltetrazol-1-yl)-N-(2-cyanopropan-2-yl)-5-(3,4-difluorophenyl)-benzamide] | 263.5 °C | 220 nM
CC(C)(NC(=O)c1cc(-c2ccc(Cl)cc2)cc(-n2cnnn2)c1)C(F)(F)F [Example 41, 3-(4-Chlorophenyl)-5-(tetrazol-1-yl)-N-(1,1,1-trifluoro-2-methylpropan-2-yl)-benzamide] | 187 °C | 350 nM
CC(C)c1nnnn1-c1cc(C(=O)NC2(C)CCS(=O)(=O)C2)cc(-c2ccc(C(F)(F)F)cc2)c1 (racemic) [Example 49, (RS)—N-(3-methyl-1,1-dioxothiolan-3-yl)-3-(5-propan-2-yltetrazol-1-yl)-5-[4-(trifluoromethyl)phenyl]benzamide] | 117 °C | 330 nM
Cc1ccc(-c2cc(C(=O)NC3(C)CCS(=O)(=O)C3)cc(-n3nnnc3C(C)C)c2)cc1 (racemic) [Example 17, (RS)-N-(3-methyl-1,1-dioxothiolan-3-yl)-3-(4-methylphenyl)-5-(5-propan-2-yltetrazol-1-yl)-benzamide] | 112 °C | 250 nM
CCC(C)(C)NC(=O)c1cc(-c2ccc(F)cc2)cc(-n2nnnc2C2CC2)c1 [Example 68, 3-(5-Cyclopropyltetrazol-1-yl)-5-(4-fluorophenyl)-N-(2-methylbutan-2-yl)-benzamide] | 74 °C | 180 nM
CC(C)(NC(=O)c1cc(-c2ccc(Cl)cc2)cc(-n2nnnc2C2CC2)c1)C(F)(F)F [Example 54, 3-(4-Chlorophenyl)-5-(5-cyclopropyltetrazol-1-yl)-N-(1,1,1-trifluoro-2-methylpropan-2-yl)-benzamide] | 91.5 °C | 210 nM
Cc1ccc(-c2cc(C(=O)NC(C)(C)C)cc(-n3nnnc3C(C)(C)C)c2)cc1F [Example 108, N-tert-Butyl-3-(5-tert-butyltetrazol-1-yl)-5-(3-fluoro-4-methylphenyl)-benzamide] | 227.5 °C | 420 nM
CC(C)(NC(=O)c1cc(-c2ccc(F)cc2)cc(-n2cnnn2)c1)C1CC1 [Example 21, N-(2-cyclopropylpropan-2-yl)-3-(4-fluorophenyl)-5-(tetrazol-1-yl)-benzamide] | 193 °C | 960 nM
CC(C)(C)c1nnnn1-c1cc(C(=O)NC(C)(C)C(F)(F)F)cc(-c2ccc(F)cc2)c1 [Example 96, 3-(5-tert-Butyltetrazol-1-yl)-5-(4-fluorophenyl)-N-(1,1,1-trifluoro-2-methylpropan-2-yl)-benzamide] | 224.5 °C | 260 nM
CC(C)(NC(=O)c1cc(-c2ccc(F)cc2)cc(-n2cnnn2)c1)C(F)(F)F [Example 18, 3-(4-Fluorophenyl)-5-(tetrazol-1-yl)-N-(1,1,1-trifluoro-2-methylpropan-2-yl)-benzamide] | 175 °C | 430 nM
CC(C)c1nnnn1-c1cc(C(=O)NC(C)(C)C2CC2)cc(-c2ccc(F)cc2)c1 [Example 82, N-(2-Cyclopropylpropan-2-yl)-3-(4-fluorophenyl)-5-(5-propan-2-yltetrazol-1-yl)-benzamide] | 75 °C | 160 nM
CC(C)(NC(=O)c1cc(-c2ccc(Cl)cc2)cc(-n2nnnc2C(F)(F)F)c1)C(F)(F)F [Example 79, 3-(4-Chlorophenyl)-N-(1,1,1-trifluoro-2-methylpropan-2-yl)-5-[5-(trifluoromethyl)tetrazol-1-yl]-benzamide] | 166.5 °C | 200 nM
Cc1ccc(-c2cc(C(=O)NC3(C)CCS(=O)(=O)C3)cc(-n3nnnc3C3CC3)c2)cc1 (racemic) [Example 33, (RS)-3-(5-Cyclopropyltetrazol-1-yl)-N-(3-methyl-1,1-dioxothiolan-3-yl)-5-(4-methylphenyl)-benzamide] | 130.5 °C | 300 nM
CC(C)(C)NC(=O)c1cc(-c2ccc(C(F)(F)F)cc2)cc(-n2nnnc2C(C)(C)C)c1 [Example 104, N-tert-Butyl-3-(5-tert-butyltetrazol-1-yl)-5-[4-(trifluoromethyl)-phenyl]-benzamide] | 241 °C | 190 nM
CC(C)(C#N)NC(=O)c1cc(-c2ccc(C(F)(F)F)cc2)cc(-n2nnnc2C(C)(C)C)c1 [Example 120, 3-(5-tert-Butyltetrazol-1-yl)-N-(2-cyanopropan-2-yl)-5-[4-(trifluoromethyl)-phenyl]benzamide] | 276.5 °C | 300 nM
CCc1nnnn1-c1cc(C(=O)NC(C)(C)C)cc(-c2ccc(C)cc2)c1 [Example 30, N-tert-Butyl-3-(5-ethyltetrazol-1-yl)-5-(4-methylphenyl)-benzamide] | 73 °C | 210 nM
CCC(C)(C)NC(=O)c1cc(-c2ccc(C)c(F)c2)cc(-n2cnnn2)c1 [Example 5, 3-(3-Fluoro-4-methylphenyl)-N-(2-methylbutan-2-yl)-5-(tetrazol-1-yl)-benzamide] | 161 °C | 250 nM
